Assay results published in PubChem BioAssay AID1963968 (Molecular Pharmacology Branch, DTP, NCI, 2024).
pIC50: −log10 of the molar value.

System: 945468-187-T-J3-PDC spheroids with HUVEC/MSC, viability
Test: Anticancer human tumor 945468-187-T-J3-PDC patient-derived rectal carcinoma cell line growth inhibition [PI3K]
Details: for pIC50: curve of first compound; for viability, T/C: stronger effect = lower value; active = viability on the fitted dose curve at most 10% of control; inactive = the rest
Summary of the method: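 Spheroid viability read-out. Co-cultures contained the tumor line plus HUVEC and human MSCs. Each agent was paired with a PI3K inhibitor (inavolisib, alpelisib, duvelisib, copanlisib) across half-log dilutions starting at clinical Cmax, or at 10 microM when Cmax was unknown.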

[1] = second compound 0.0316 µM, first compound 0.0316 µM
[2] = second compound 0.0316 µM, first compound 0.1 µM
[3] = second compound 0.0316 µM, first compound 0.316 µM
[4] = second compound 0.0316 µM, first compound 1 µM
[5] = second compound 0.0316 µM, first compound 3.16 µM
[6] = second compound 0.0316 µM, first compound 10 µM
[7] = second compound 0.1 µM, first compound 0.0316 µM
[8] = second compound 0.1 µM, first compound 0.1 µM
[9] = second compound 0.1 µM, first compound 0.316 µM
[10] = second compound 0.1 µM, first compound 1 µM
[11] = second compound 0.1 µM, first compound 3.16 µM
[12] = second compound 0.1 µM, first compound 10 µM
[13] = second compound 0.316 µM, first compound 0.0316 µM
[14] = second compound 0.316 µM, first compound 0.1 µM
[15] = second compound 0.316 µM, first compound 0.316 µM
[16] = second compound 0.316 µM, first compound 1 µM
[17] = second compound 0.316 µM, first compound 3.16 µM
[18] = second compound 0.316 µM, first compound 10 µM
[19] = second compound 1 µM, first compound 0.0316 µM
[20] = second compound 1 µM, first compound 0.1 µM
[21] = second compound 1 µM, first compound 0.316 µM
[22] = second compound 1 µM, first compound 1 µM
[23] = second compound 1 µM, first compound 3.16 µM
[24] = second compound 1 µM, first compound 10 µM
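Note: spheroids exposed to agents for 7 days before viability read.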
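Throughout, for viability, T/C: 100% = DMSO vehicle control viability.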

Cn1cnc2c(F)c(Nc3ccc(Br)cc3Cl)c(C(=O)NOCCO)cc21 + Cc1nc(NC(=O)N2CCCC2C(N)=O)sc1-c1ccnc(C(C)(C)C(F)(F)F)c1
inactive: viability, T/C (second compound 0.0316 µM, first compound 0.00949 µM) 111% | viability, T/C (second compound 0.0316 µM, first compound 0.03 µM) 124% | viability, T/C (second compound 0.0316 µM, first compound 0.0949 µM) 129% | viability, T/C (second compound 0.0316 µM, first compound 0.3 µM) 120% | viability, T/C (second compound 0.0316 µM, first compound 0.949 µM) 123% | viability, T/C (second compound 0.0316 µM, first compound 3 µM) 107% | viability, T/C (second compound 0.1 µM, first compound 0.00949 µM) 113% | viability, T/C (second compound 0.1 µM, first compound 0.03 µM) 109% | viability, T/C (second compound 0.1 µM, first compound 0.0949 µM) 114% | viability, T/C (second compound 0.1 µM, first compound 0.3 µM) 122% | viability, T/C (second compound 0.1 µM, first compound 0.949 µM) 114% | viability, T/C (second compound 0.1 µM, first compound 3 µM) 90.4% | viability, T/C (second compound 0.316 µM, first compound 0.00949 µM) 114% | viability, T/C (second compound 0.316 µM, first compound 0.03 µM) 123% | viability, T/C (second compound 0.316 µM, first compound 0.0949 µM) 116% | viability, T/C (second compound 0.316 µM, first compound 0.3 µM) 123% | viability, T/C (second compound 0.316 µM, first compound 0.949 µM) 94.1% | viability, T/C (second compound 0.316 µM, first compound 3 µM) 60.4% | viability, T/C (second compound 1 µM, first compound 0.00949 µM) 117% | viability, T/C (second compound 1 µM, first compound 0.03 µM) 125% | viability, T/C (second compound 1 µM, first compound 0.0949 µM) 100% | viability, T/C (second compound 1 µM, first compound 0.3 µM) 101% | viability, T/C (second compound 1 µM, first compound 0.949 µM) 51.8% | viability, T/C (second compound 1 µM, first compound 3 µM) 34.2% | viability, T/C (second compound 3.16 µM, first compound 0.00949 µM) 105% | viability, T/C (second compound 3.16 µM, first compound 0.03 µM) 87% | viability, T/C (second compound 3.16 µM, first compound 0.0949 µM) 61.6% | viability, T/C (second compound 3.16 µM, first compound 0.3 µM) 55.7% | viability, T/C (second compound 3.16 µM, first compound 0.949 µM) 30% | viability, T/C (second compound 3.16 µM, first compound 3 µM) 20.2% | viability, T/C (second compound 10 µM, first compound 0.00949 µM) 56.9% | viability, T/C (second compound 10 µM, first compound 0.03 µM) 46.5% | viability, T/C (second compound 10 µM, first compound 0.0949 µM) 34.3% | viability, T/C (second compound 10 µM, first compound 0.3 µM) 20.6% | viability, T/C (second compound 10 µM, first compound 0.949 µM) 10.7%
active: viability, T/C (second compound 10 µM, first compound 3 µM) 4.74%
6.54: pIC50 (second compound 3.16 µM)
< 5.52: pIC50 (second compound 0.0316 µM) | pIC50 (second compound 0.1 µM) | pIC50 (second compound 0.316 µM)
5.93: pIC50 (second compound 1 µM)
7.68: pIC50 (second compound 10 µM)

C[C@@H](NC(=O)c1ncnc(N)c1Cl)c1ncc(C(=O)Nc2cc(C(F)(F)F)c(Cl)cn2)s1 + CC(Nc1ccc2c(c1)OCCn1cc(N3C(=O)OCC3C(F)F)nc1-2)C(N)=O
< 5.00: pIC50 (second compound 0.00316 µM) | pIC50 (second compound 0.01 µM) | pIC50 (second compound 0.0316 µM) | pIC50 (second compound 0.1 µM) | pIC50 (second compound 0.316 µM) | pIC50 (second compound 1 µM)
inactive: viability, T/C (second compound 0.00316 µM, first compound 0.0316 µM) 97.2% | viability, T/C (second compound 0.00316 µM, first compound 0.1 µM) 97.5% | viability, T/C (second compound 0.00316 µM, first compound 0.316 µM) 116% | viability, T/C (second compound 0.00316 µM, first compound 1 µM) 91.5% | viability, T/C (second compound 0.00316 µM, first compound 3.16 µM) 111% | viability, T/C (second compound 0.00316 µM, first compound 10 µM) 92% | viability, T/C (second compound 0.01 µM, first compound 0.0316 µM) 94.7% | viability, T/C (second compound 0.01 µM, first compound 0.1 µM) 110% | viability, T/C (second compound 0.01 µM, first compound 0.316 µM) 101% | viability, T/C (second compound 0.01 µM, first compound 1 µM) 88.4% | viability, T/C (second compound 0.01 µM, first compound 3.16 µM) 90.8% | viability, T/C (second compound 0.01 µM, first compound 10 µM) 98.4% | viability, T/C [1] 94.4% | viability, T/C [2] 89.3% | viability, T/C [3] 94.4% | viability, T/C [4] 95.1% | viability, T/C [5] 103% | viability, T/C [6] 94.3% | viability, T/C [7] 91.2% | viability, T/C [8] 102% | viability, T/C [9] 101% | viability, T/C [10] 100% | viability, T/C [11] 96.7% | viability, T/C [12] 95.8% | viability, T/C [13] 109% | viability, T/C [14] 112% | viability, T/C [15] 92.7% | viability, T/C [16] 92.7% | viability, T/C [17] 88.8% | viability, T/C [18] 96.3% | viability, T/C [19] 67.5% | viability, T/C [20] 56.1% | viability, T/C [21] 63.7% | viability, T/C [22] 56.8% | viability, T/C [23] 65.1% | viability, T/C [24] 62.4%

CNC(=O)c1ccc(N2C(=S)N(c3ccc(C#N)c(C(F)(F)F)c3)C(=O)C2(C)C)cc1F + CC(Nc1ncnc2nc[nH]c12)c1cc2cccc(Cl)c2c(=O)n1-c1ccccc1
inactive: viability, T/C [1] 101% | viability, T/C [2] 113% | viability, T/C [3] 98.4% | viability, T/C [4] 102% | viability, T/C [5] 98.4% | viability, T/C [6] 100% | viability, T/C [7] 99.7% | viability, T/C [8] 109% | viability, T/C [9] 94.1% | viability, T/C [10] 116% | viability, T/C [11] 103% | viability, T/C [12] 106% | viability, T/C [13] 99.5% | viability, T/C [14] 93.8% | viability, T/C [15] 100% | viability, T/C [16] 108% | viability, T/C [17] 101% | viability, T/C [18] 97.1% | viability, T/C [19] 96.5% | viability, T/C [20] 102% | viability, T/C [21] 107% | viability, T/C [22] 106% | viability, T/C [23] 105% | viability, T/C [24] 94.8% | viability, T/C (second compound 3.16 µM, first compound 0.0316 µM) 102% | viability, T/C (second compound 3.16 µM, first compound 0.1 µM) 113% | viability, T/C (second compound 3.16 µM, first compound 0.316 µM) 95% | viability, T/C (second compound 3.16 µM, first compound 1 µM) 107% | viability, T/C (second compound 3.16 µM, first compound 3.16 µM) 92.9% | viability, T/C (second compound 3.16 µM, first compound 10 µM) 110% | viability, T/C (second compound 10 µM, first compound 0.0316 µM) 99.5% | viability, T/C (second compound 10 µM, first compound 0.1 µM) 99.2% | viability, T/C (second compound 10 µM, first compound 0.316 µM) 107% | viability, T/C (second compound 10 µM, first compound 1 µM) 99.2% | viability, T/C (second compound 10 µM, first compound 3.16 µM) 105% | viability, T/C (second compound 10 µM, first compound 10 µM) 109%
< 5.00: pIC50 (second compound 0.0316 µM) | pIC50 (second compound 0.1 µM) | pIC50 (second compound 0.316 µM) | pIC50 (second compound 1 µM) | pIC50 (second compound 3.16 µM) | pIC50 (second compound 10 µM)
